Experimental data as given in patent US20100323975A1, “THERAPEUTIC AGENT FOR CEREBRAL ISCHEMIC INJURY” (OTSUKA PHARMACEUTICAL FACTORY, INC., priority 2007, published 2010).
Entries after “also recorded” stand apart in the source; their conditions may differ. Peptide text beside a SMILES is read from it.

Tests used:
[1] = test system: model of middle cerebral artery occlusion and subsequent reperfusion (cerebral ischemic injury); assay: Infarction rate in model of middle cerebral artery occlusion and subsequent reperfusion (Test Example 1); format: in vivo, Wistar male rats; conditions: for Infarction rate (mean value): 90 min occlusion, day after administration, control 49%
Description: Approximately 9-week-old Wistar male rats were used. The method of Koizumi et al. (Nou-socchu (Cerebral Apoplexy), Vol. 8, pp. 1-8, 1986) was applied to the rats under halothane anesthesia, so as to produce models of middle cerebral artery occlusion and subsequent reperfusion. Specifically, each rat was fixed under natural aspiration conditions under anesthesia with gas (initial anesthesia: performed in room air containing 3% halothane; continuous anesthesia: performed in room air containing 1% halothane), and the neck of the rat was then subjected to median incision. Subsequently, the left common carotid and external carotid artery was exfoliated from surrounding connective tissues, and it was then ligated with a ligature. After that, the internal carotid artery was exfoliated from surrounding connective tissues, and it was then ligated with a ligature. Further, using scissors, a hole was made on a site close to the branch point between the left external carotid artery and the internal carotid artery, and a silicon-coated portion of a nylon plug was then inserted into the internal carotid artery at a depth of 15 to 16 mm. Thereby, the tip of the inserted nylon plug exceeded the middle cerebral artery portion and reached the anterior cerebral artery, so that the inlet of the middle cerebral artery was occluded with the silicon-coated portion of the plug. […]
On the day after the administration of the agent, a test animal was anesthetized with ether, and the brain was then excised. […] A slice of brain section was placed, with a surface to be measured down, into each well of a 12-well plate, which had been filled with a 2% TTC solution prepared by dissolving 2,3,5-triphenyltetrazolium chloride (TTC) in a phosphate buffered saline. […] Thus, the area of an infarct on the measurement surface of each brain section (the site in which brain tissue was considered to be necrosed) was measured, and the obtained value was then multiplied by the thickness of the brain section, so as to obtain the volume of an infarct in each brain section. […]

[2] = Solubility in water at 25° C.; format: physicochemical
Wistar male rats = assay: Identification of side effects after intravenous administration (Test Example 2); conditions: for Cessation of breathing, number of cases: 4 rats per group
Experimental: (§1) 7- to 9-week-old Wistar male rats were divided into the following 8 administration groups. The number of rats in each group was set at 4. […]
L-histidine hydrochloride was dissolved in water for injection purpose, and the obtained solution was then adjusted to pH 6.0 with a sodium hydroxide aqueous solution. The obtained injection solution (L-histidine concentration: 10% (W/V)) was administered into the caudal vein of each rat at a rate of 60 mL/kg/hr for 10 minutes.
(§2) L-histidine was added to water for injection purpose, and acetic acid was further added thereto, so as to dissolve L-histidine in the solution. The obtained solution was adjusted to pH 6.0 with a sodium hydroxide aqueous solution. The obtained injection solution (L-histidine concentration: 10% (W/V)) was administered into the caudal vein of each rat at a rate of 60 mL/kg/hr for 10 minutes.
L-histidine was added to water for injection purpose, and citric acid was further added thereto, so as to dissolve L-histidine in the solution. The obtained solution was adjusted to pH 6.0 with a sodium hydroxide aqueous solution. The obtained injection solution (L-histidine concentration: 10% (W/V)) was administered into the caudal vein of each rat at a rate of 60 mL/kg/hr for 10 minutes.
β-alanyl-L-histidine was added to water for injection purpose, and the obtained solution was then adjusted to pH 7 with hydrochloric acid. The obtained injection solution (L-histidine concentration: 10% (W/V)) was administered into the caudal vein of each rat at a rate of 60 mL/kg/hr for 10 minutes. […]
(§3) After administration of the agent, blood was collected from each rat at regular time intervals, and the concentration of L-histidine (monomer) in blood was then measured using a high speed amino acid analyzer L-8800A (manufactured by Hitachi High-Technologies Corporation). […] In addition, the body temperature, blood pressure, and cardiac rate of each test animal were measured during the period from before administration of the agent until after the administration of the agent, and at the same time, the appearance of each test animal was observed, so as to examine the presence or absence of side effects caused by administration of the agent. The L-histidine concentration in blood was measured 15 minutes after the administration of the agent, and the presence or absence of side effects caused by such administration of the agent was examined.

[3] = Time course of L-histidine concentration in blood after administration of different dipeptides (Test Example 4); format: in vivo, Wister male rats
Experimental: 7- to 8-week-old Wister male rats were divided into the following 3 administration groups.
1.00 g of L-alanyl-L-histidine (manufactured by Bachem) was dissolved in water for injection purpose to prepare 13.70 mL (total amount) of solution. This solution was subjected to sterilization filtration, and it was then poured into syringes (10 mL each per syringe), so as to produce a therapeutic agent for cerebral ischemic injury having a dosage form as an injection. The concentration of L-alanyl-L-histidine in this therapeutic agent for cerebral ischemic injury was 0.32 mol/L (L-histidine concentration: 5% (W/V)).
1.00 g of L-histidyl-L-glycine (manufactured by Bachem) was dissolved in water for injection purpose to prepare 14.60 mL (total amount) of solution. This solution was subjected to sterilization filtration, and it was then poured into syringes (10 mL each per syringe), so as to produce a therapeutic agent for cerebral ischemic injury having a dosage form as an injection. The concentration of L-histidyl-L-glycine in this therapeutic agent for cerebral ischemic injury was 0.32 mol/L (L-histidine concentration: 5% (W/V)).
1.00 g of L-histidyl-L-glutamic acid (manufactured by Bachem) was dissolved in water for injection purpose to prepare 10.90 mL (total amount) of solution. This solution was subjected to sterilization filtration, and it was then poured into syringes (10 mL each per syringe), so as to produce a therapeutic agent for cerebral ischemic injury having a dosage form as an injection. The concentration of L-histidyl-L-glutamic acid in this therapeutic agent for cerebral ischemic injury was 0.32 mol/L (L-histidine concentration: 5% (W/V)).

[4] = L-histidine concentration in blood after intravenous administration (Test Example 2)
Experimental: as §1
The therapeutic agent for cerebral ischemic injury obtained in Production Example 2 was diluted by a factor of 2, and the thus diluted solution was administered into the caudal vein of each rat at a rate of 60 mL/kg/hr for 10 minutes. […]
as §2
L-histidine was added to water for injection purpose, and citric acid was further added thereto, so as to dissolve L-histidine in the solution. The obtained solution was adjusted to pH 6.0 with a sodium hydroxide aqueous solution. The obtained injection solution (L-histidine concentration: 10% (W/V)) was administered into the caudal vein of each rat at a rate of 60 mL/kg/hr for 10 minutes. […]
as §3

[5] = male, Wistar, rat, in vivo, 0 min
[6] = male, Wistar, rat, in vivo, 15 min
[7] = male, Wistar, rat, in vivo, 30 min
[8] = male, Wistar, rat, in vivo, 60 min
[9] = male, Wistar, rat, in vivo, 120 min
[10] = male, Wistar, rat, in vivo, -10 min
[11] = 5th administration group: dissolved with acetic acid, pH 6.0, L-histidine 10% (W/V), caudal vein 60 mL/kg/hr for 10 minutes
[12] = 6th administration group: dissolved with citric acid, pH 6.0, L-histidine 10% (W/V), caudal vein 60 mL/kg/hr for 10 minutes

CC1=NN(c2ccccc2)C(=O)C1 [Edaravone, 3-methyl-1-phenyl-2-pyrazoline-5-one]
Infarction rate (mean value) ([1]; Comparison group: bolus injection 3 mg/kg immediately after and 30 minutes after reperfusion): 38%

C[C@H](N)C(=O)N[C@@H](Cc1c[nH]cn1)C(=O)O [L-alanyl-L-histidine] (H-Ala-His-OH)
solubility [2]: ≥ 3500 mM
Side effects (Wistar male rats; rat, in vivo): None
L-histidine concentration in blood [3, 5]: 7588.27 nmol/mL
L-histidine concentration in blood immediately after completion of administration, relative to second administration group (L-histidyl-L-glycine) [3, 5]: approximately 2 times
L-histidine concentration in blood immediately after completion of administration, relative to third administration group (L-histidyl-L-glutamic acid) [3, 5]: approximately 5 times
L-histidine concentration in blood [3, 6]: 3802.80 nmol/mL
L-histidine concentration in blood [3, 7]: 2198.93 nmol/mL
L-histidine concentration in blood [3, 8]: 770.17 nmol/mL
L-histidine concentration in blood [3, 9]: 268.77 nmol/mL
L-histidine concentration in blood [3, 10]: 76.67 nmol/mL
Cerebral ischemic injury during cerebral ischemia-reperfusion compared with control group and comparison group ([1]; Experiment group, Production Example 1 injection): remarkably suppressed
Infarction rate (mean value) ([1]; Experiment group: Production Example 1 injection (1.29 mol/L), caudal vein 60 mL/kg/hr for 10 minutes, immediately after and 6 hours after reperfusion): 20%
Factor of increase of L-histidine concentration in blood when the concentration administered was increased by a factor of 2 [4, 6]: 3-3.5

Cl.N[C@@H](Cc1c[nH]cn1)C(=O)O [L-histidine hydrochloride]
Side effects (Wistar male rats; 4th (pH 6.0) / 7th (pH 7) administration group: L-histidine concentration 10% (W/V), caudal vein 60 mL/kg/hr for 10 minutes, hydrochloride): Decrease in blood pressure; also recorded: Cessation of breathing
Cessation of breathing, number of cases (Wistar male rats; 4th group: during administration of agent, 7th group: immediately after administration, L-histidine 10% (W/V)): agent in 2 cases

N[C@@H](Cc1c[nH]cn1)C(=O)O [L-histidine]
Side effects (Wistar male rats; [11]): Decrease in blood pressure; also recorded: Cessation of breathing
Cessation of breathing, number of cases (Wistar male rats; 5th group (acetic acid, pH 6.0, 10% (W/V)): immediately after administration of agent): administration of agent in 4 cases
Side effects (Wistar male rats; [12]): Decrease in blood pressure; also recorded: Cessation of breathing
Cessation of breathing, number of cases (Wistar male rats; 6th group (citric acid, pH 6.0, 10% (W/V)): during administration of agent): agent in 4 cases
L-histidine concentration in blood (mean value) [4, 11]: Not be measurable
L-histidine concentration in blood (mean value) [4, 12]: Not be measurable

N[C@@H](Cc1c[nH]cn1)C(=O)N[C@@H](CCC(=O)O)C(=O)O [L-histidyl-L-glutamic acid] (H-His-Glu-OH)
L-histidine concentration in blood [3, 5]: 1546.15 nmol/mL
L-histidine concentration in blood [3, 6]: 2090.10 nmol/mL
L-histidine concentration in blood [3, 7]: 1827.15 nmol/mL
L-histidine concentration in blood [3, 8]: 926.80 nmol/mL
L-histidine concentration in blood [3, 9]: 233.20 nmol/mL
L-histidine concentration in blood [3, 10]: 78.40 nmol/mL

N[C@@H](Cc1cnc[nH]1)C(=O)NCC(=O)O [L-histidyl-L-glycine] (H-His-Gly-OH)
L-histidine concentration in blood ([3]; 0 min after administration, 0.32 mol/L, caudal vein 60 mL/kg/hr for 10 minutes): 3995.57 nmol/mL
L-histidine concentration in blood ([3]; 15 min after administration, 0.32 mol/L, caudal vein 60 mL/kg/hr for 10 minutes): 3798.87 nmol/mL
L-histidine concentration in blood ([3]; 30 min after administration, 0.32 mol/L, caudal vein 60 mL/kg/hr for 10 minutes): 2019.47 nmol/mL
L-histidine concentration in blood ([3]; 60 min after administration, 0.32 mol/L, caudal vein 60 mL/kg/hr for 10 minutes): 833.93 nmol/mL
L-histidine concentration in blood ([3]; 120 min after administration, 0.32 mol/L, caudal vein 60 mL/kg/hr for 10 minutes): 244.03 nmol/mL
L-histidine concentration in blood ([3]; −10 min (before administration), 0.32 mol/L, caudal vein 60 mL/kg/hr for 10 minutes): 74.73 nmol/mL

CC(=O)N[C@@H](Cc1c[nH]cn1)C(=O)O [N-acetyl-L-histidine]
Side effects (Wistar male rats; rat, in vivo, pH 7): None
L-histidine concentration in blood (mean value) ([4]; male, Wistar, rat, in vivo, 15 min, pH 7): 0.25 mM

NCCC(=O)N[C@@H](Cc1cnc[nH]1)C(=O)O [β-alanyl-L-histidine]
Side effects (Wistar male rats; rat, in vivo): Cessation of breathing
L-histidine concentration in blood (mean value) [4, 6]: 0.30 mM
